Measured values from patent US20230235374A1, “High Throughput Assays for Detecting Translation Readthrough Inducers” (The Trustees of the University of Pennsylvania, priority 2021, published 2023).
Read-outs that look alike come from different tables or passages of the source.

Legend:
[1] = system: Stop-POST5 complex (RFC-dependent termination); assay: smTIRF assay of RFC-dependent peptide and tRNA release; assay type: biochemical, shrimp (Artemia salina)
Protocol: Immobilization of ribosome Stop-POST 5 complexes. PEGylated flow chambers were incubated in 0.5 mg/ml streptavidin for 5 mins and washed with Buffer 4. Biotinylated Stop-POST5 containing FK(atto647)VRQ-tRNA^Gln (Cy3) in the P-site, was formed at room temperature by incubating Stop-POST4, eEF1A, GTP, and Gln-(Cy3)tRNA^Gln for 5 mins and then injected into the streptavidin-coated slide chamber. After a 5 min incubation, excess unbound ribosome was flowed out. Then eRF1/eRF3±TRIDs was injected dynamically at 3 sec while recording. The injection dead time was subtracted for each particle.
Single-molecule fluorescence imaging. All sm-TIRF studies were carried out at 24° C. All dilutions, complex formation, and single-molecule imaging were carried out in Buffer 4 with an added enzymatic oxygen scavenging system of 2 mM protocatechuic acid (PCA), 50 nM protocatechunate 3,4 dioxygenase (PCD, Sigma Aldrich), 1 mM cyclooctatetraene (COT, Sigma Aldrich), 1 mM 4-nitrobenzyl alcohol (NBA, Sigma Aldrich), and 1.5 mM 6-hydroxy-2,5,7,8-tetramethyl-chromane-2-carboxylic acid (Trolox, Sigma-Aldrich) (Flis et al., Cell reports, 25(10), 2676-2688 (2018).
Image stacks were recorded at 100 ms frame rate on a custom-built objective-type total internal reflection fluorescence (TIRF) microscope based on a commercial inverted microscope (Eclipse Ti-E, Nikon) and capable of performing alternating-laser excitation (ALEX) between 532 nm and 640 nm laser beams using an acousto-optic tunable filter (AOTF, Chen et al., 2011). For the time-lapse experiment, timing of the movies, programmed into NIS-Elements (Nikon) microscope software, were recorded by illuminating the sample for 50-20 frames at 10 frames per s with 15 s or […] intervening dark intervals. Video recording was started and then eRF1/eRF3±TRIDs was injected from a triggered syringe pump at 3 sec while recording. The injection dead time was subtracted for each particle. Triggering of the shutters, AOTF, and pump was synchronized using LabView scripts driven from the camera exposure signal.
Data analysis. Collected movies were analyzed by a custom-made software program developed as an ImageJ plugin (Chen et al., Mol. Cell, 42, 367-377 (2011)), and further analyzed using Python. Distributions of peptide and tRNA dissociation times were fit to eq (5), using maximum likelihood estimation (Bevington and Robinson. Data Reduction and Error Analysis for the Physical Sciences. New York: McGraw-Hill, (2002); Woody et al., Biophys. J. 111, 273-282 (2016)), where P is the probability density.
smTIRF results using Atto(pep)-Cy-Stop-POST5 attached to surface-immobilized ribosomes. Although the distance between the two fluorophores is not close enough to produce FRET, fluorescent pairs could be identified by co-localization on the slide under alternating 532 nm and 640 nm total internal reflection fluorescence (TIRF) illumination. This permits near-simultaneous monitoring of the dynamics of peptide and P-site tRNA release from the Stop-POST5 complex following RFC binding.
To reduce photobleaching of each fluorophore, time-lapse movies were recorded with bursts of 20 or 50 frames at 100 ms frame intervals interleaved by 20 s intervals with the lasers shuttered. Total recording time for each trial was 20 min.
FIG. 8A and FIG. 8C show typical frame by frame recordings indicating a loss of signal for both labeled peptide and labeled tRNA after the addition of the RFC to Atto(pep)-Cy(tRNA)-Stop-POST5. Either peptide (a) or tRNA (b) can dissociate first, in approximately equal proportions. Photobleaching of Cy3-labeled tRNA and Atto647-labeled peptide in the absence of eRF1/eRF3 was much slower (FIG. 8E and FIG. 8F). Under the time lapse illumination employed, mean lifetimes for Atto647-peptide and Cy3-tRNA at 0.32 μM eRF1 and 2 μM eRF3 were each 2.45 min. […]

[2] = system: Atto(pep)-Stop-POST5 (RFC-dependent termination); assay: Plate reader fluorescence anisotropy assay of pentapeptide release; assay type: biochemical, shrimp (Artemia salina); settings: absence of ataluren
Protocol: Plate reader assays were run in a Tecan F200® 96-well plate reader (Greiner® black, non-binding, chimney flat) equipped with 640 nm excitation and 700 nm polarization filters using 96-well plates. Atto(pep)-Stop-POST5 in Buffer 4 (0.1 μM, 80 μl) containing GTP (1 mM) was added to plate wells±ataluren at 25° C. eRF1 and eRF3 aliquots stored at −80° C. were thawed for 15 s at 37° C. and added directly to a premade ice-cold GTP (1 mM)±ataluren solution in Buffer 4. The resulting release factor solution was incubated at 25° C. for 1 min, and then added quickly in 80 μL portions to the Atto(pep)-Stop-POST5 containing wells with a multichannel pipette to the Atto(pep)-Stop-Posts wells. The final concentrations were: eRF1, 0.025-0.4 μM; eRF3, 0.8 μM; Atto(pep)-Stop-Posts, 0.05 μM. Fluorescence anisotropy decay graphs were fit with GraphPad Prism, using the one phase decay model to obtain peptide dissociation rates.
Ensemble fluorescence anisotropy results using Atto(pep)-Stop-POST5. The fluorescence anisotropy of the pentapeptidyl moiety of Atto(pep)-Stop-POST5 was quite high (0.22), and decreased following addition of RFC, providing a convenient measure of the rate of pentapeptide release from the ribosome. […] Each such time dependency could be fit to a single exponential, giving the collected rate constants presented in FIG. 9G, in which the rate dependence as a function of RFC concentration was measured at 0, 200, 500, and 1,000 μM ataluren. In the absence of ataluren, EC50 (0.029±0.002 μM) and Vmax (0.31±0.02) values were obtained for pentapeptide release similar to those measured by smTIRF. In addition, as with the smTIRF results, Vmax values were unaffected by added ataluren but EC50 values increased, reaching ˜0.06 μM at 1000 μM.

[3] = system: Stop-POST5 complex (RFC-dependent termination); assay: smTIRF assay of RFC-dependent peptide and tRNA release; assay type: biochemical, shrimp (Artemia salina); settings: saturating RFC (0.65 μM eRF1, 1.3 μM eRF3)
[4] = system: Trp-PRE6 complex; assay: smFRET translocation of Trp-PRE6 to Trp-POST6; assay type: biochemical; settings: 23° C.
Text: Changes in FRET (FIGS. 16E-16G) were used to determine the rate of translocation (FIG. 16H) and the residence time of deacylated tRNA dissociation from the E-site (FIG. 16I) as functions of [eEF2.GTP].

[5] = 0.32 μM eRF1 and 2 μM eRF3, time lapse illumination
[6] = absence of ataluren, Michaelis-Menten fit

## RFC: release factor complex of eRF1 and eRF3 with GTP catalysing termination
[1]; [5]
  mean lifetime, Atto647-peptide: 2.45 min
  mean lifetime, Cy3-tRNA: 2.45 min
[1]; [RFC] 0.016 μM
  peptide release rate constants, As 2nd product: 0.12 ± 0.03 min⁻¹
  peptide release rate constants, Overall: 0.13 ± 0.02 min⁻¹
  tRNA release rate constants, As 2nd product: 0.086 ± 0.023 min⁻¹
  tRNA release rate constants, Overall: 0.10 ± 0.02 min⁻¹
[1]; [RFC] 0.032 μM
  peptide release rate constants, As 2nd product: 0.15 ± 0.02 min⁻¹
  peptide release rate constants, Overall: 0.16 ± 0.02 min⁻¹
  tRNA release rate constants, As 2nd product: 0.063 ± 0.021 min⁻¹
  tRNA release rate constants, Overall: 0.12 ± 0.02 min⁻¹
[1]; [RFC] 0.080 μM
  peptide release rate constants, As 2nd product: 0.15 ± 0.02 min⁻¹
  peptide release rate constants, Overall: 0.21 ± 0.02 min⁻¹
  tRNA release rate constants, As 2nd product: 0.12 ± 0.02 min⁻¹
  tRNA release rate constants, Overall: 0.17 ± 0.03 min⁻¹
[1]; [RFC] 0.166 μM
  peptide release rate constants, As 2nd product: 0.19 ± 0.02 min⁻¹
  peptide release rate constants, Overall: 0.24 ± 0.01 min⁻¹
  tRNA release rate constants, As 2nd product: 0.14 ± 0.03 min⁻¹
  tRNA release rate constants, Overall: 0.18 ± 0.02 min⁻¹
[1]; [RFC] 0.32 μM
  peptide release rate constants, As 2nd product: 0.24 ± 0.03 min⁻¹
  peptide release rate constants, Overall: 0.26 ± 0.02 min⁻¹
  tRNA release rate constants, As 2nd product: 0.17 ± 0.03 min⁻¹
  tRNA release rate constants, Overall: 0.20 ± 0.02 min⁻¹
[1]; [RFC] 0.65 μM
  peptide release rate constants, As 2nd product: 0.23 ± 0.04 min⁻¹
  peptide release rate constants, Overall: 0.27 ± 0.03 min⁻¹
  tRNA release rate constants, As 2nd product: 0.23 ± 0.04 min⁻¹
  tRNA release rate constants, Overall: 0.21 ± 0.03 min⁻¹
[1]; [RFC] 1.61 μM
  peptide release rate constants, As 2nd product: 0.25 ± 0.03 min⁻¹
  peptide release rate constants, Overall: 0.26 ± 0.02 min⁻¹
  tRNA release rate constants, As 2nd product: 0.15 ± 0.02 min⁻¹
  tRNA release rate constants, Overall: 0.20 ± 0.02 min⁻¹
[1]; [6]
  Vmax, peptide dissociation: ~0.27 ± 0.02 min⁻¹
  Vmax, tRNA dissociation: 0.20 ± 0.02 min⁻¹
[1]; absence of ataluren, read-out: EC50, peptide dissociation
  EC50: ~20 nM
[1]; absence of ataluren, read-out: EC50, tRNA dissociation
  EC50: ~20 nM
[2]
  EC50: 29 ± 2 nM
  Vmax, pentapeptide release: 0.31±0.02
[3]
  rate constant, Atto(pep)-Cy(rbsm)-Stop-POST5: 0.26 ± 0.03 min⁻¹
  rate constant, Atto(rbsm)-Cy(tRNA)-Stop-POST5: 0.20 ± 0.03 min⁻¹

B1: eEF2: yeast eukaryotic elongation factor 2 (protein, UniProt P32324 1-842, looked up)
Elongation factor 2: MVAFTVDQMRSLMDKVTNVRNMSVIAHVDHGKSTLTDSLVQRAGIISAAKAGEARFTDTRKDEQERGITIKSTAISLYSEMSDEDVKEIKQKTDGNSFLINLIDSPGHVDFSSEVTAALRVTDGALVVVDTIEGVCVQTETVLRQALGERIKPVVVINKVDRALLELQVSKEDLYQTFARTVESVNVIVSTYADEVLGDVQVYPARGTVAFGSGLHGWAFTIRQFATRYAKKFGVDKAKMMDRLWGDSFFNPKTKKWTNKDTDAEGKPLERAFNMFILDPIFRLFTAIMNFKKDEIPVLLEKLEIVLKGDEKDLEGKALLKVVMRKFLPAADALLEMIVLHLPSPVTAQAYRAEQLYEGPADDANCIAIKNCDPKADLMLYVSKMVPTSDKGRFYAFGRVFAGTVKSGQKVRIQGPNYVPGKKDDLFIKAIQRVVLMMGRFVEPIDDCPAGNIIGLVGIDQFLLKTGTLTTSETAHNMKVMKFSVSPVVQVAVEVKNANDLPKLVEGLKRLSKSDPCVLTYMSESGEHIVAGTGELHLEICLQDLEHDHAGVPLKISPPVVAYRETVESESSQTALSKSPNKHNRIYLKAEPIDEEVSLAIENGIINPRDDFKARARIMADDYGWDVTDARKIWCFGPDGNGPNLVIDQTKAVQYLHEIKDSVVAAFQWATKEGPIFGEEMRSVRVNILDVTLHADAIHRGGGQIIPTMRRATYAGFLLADPKIQEPVFLVEIQCPEQAVGGIYSVLNKKRGQVVSEEQRPGTPLFTVKAYLPVNESFGFTGELRQATGGQAFPQMVFDHWSTLGSDPLDPTSKAGEIVLAARKRHGMKEEVPGWQEYYDKL
[4]
  kcat, translocation: 1.0 s⁻¹
[4]; read-out: Km^eEF2, translocation
  Km: 0.28 µM
